In ChEMBL document CHEMBL1201862, “PubChem BioAssay data set” (2004):
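Protocol summary: plate cells (96-well), add compound at 5 concentrations, incubate 48 h, interpolate endpoints linearly. Abbreviation: GI50, concentration required for 50% inhibition of growth.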 The source made the active and inactive calls. No stated cut-off is given here; in the data, active = GI50 up to about 1.1 µM and inactive = higher.

What was measured:
Assay in all cases: NCI-60 cell line screen, 48 h
[1] = system: 786-0
[2] = system: A498
[3] = system: A549
[4] = system: ACHN
[5] = system: BT-549
[6] = system: CAKI-1
[7] = system: CCRF-CEM
[8] = system: COLO 205
[9] = system: DU-145
[10] = system: EKVX
[11] = system: HCC 2998
[12] = system: HCT-116
[13] = system: HCT-15
[14] = system: HL-60
[15] = system: HOP-62
[16] = system: HOP-92
[17] = system: HT-29
[18] = system: Hs-578T
[19] = system: IGROV-1
[20] = system: K562
[21] = system: KM12
[22] = system: M14
[23] = system: MCF7
[24] = system: MDA-MB-231
[25] = system: MDA-MB-435
[26] = system: MDA-N
[27] = system: MOLT-4
[28] = system: Malme-3M
[29] = system: NCI-H226
[30] = system: NCI-H23
[31] = system: NCI-H460
[32] = system: NCI-H522
[33] = system: NCI/ADR-RES
[34] = system: OVCAR-3
[35] = system: OVCAR-4
[36] = system: OVCAR-5
[37] = system: OVCAR-8
[38] = system: PC-3
[39] = system: RPMI-8226
[40] = system: RXF 393
[41] = system: SF-268
[42] = system: SF-295
[43] = system: SF-539
[44] = system: SK-MEL-28
[45] = system: SK-MEL-2
[46] = system: SK-MEL-5
[47] = system: SK-OV-3
[48] = system: SN12C
[49] = system: SNB-19
[50] = system: SNB-75
[51] = system: SR
[52] = system: SW-620
[53] = system: T47D
[54] = system: TK-10
[55] = system: U-251
[56] = system: UACC-257
[57] = system: UACC-62
[58] = system: UO-31
[59] = system: LOX IMVI

Measured: GI50

NCC[Se][Se]CCN
6.24 µM: [13]
inactive: [1] 14 µM | [2] 9.18 µM | [3] 6.03 µM | [4] 10 µM | [5] 14.4 µM | [6] 10.7 µM | [7] 5.12 µM | [8] 4.06 µM | [9] 11.6 µM | [10] 5.38 µM | [11] 11.9 µM | [12] 4.28 µM | [14] 1.8 µM | [15] 8.67 µM | [16] 19.3 µM | [17] 10 µM | [18] 12.4 µM | [19] 9.23 µM | [20] 16.6 µM | [21] 8.05 µM | [22] 3.83 µM | [23] 8.79 µM | [24] 12.8 µM | [25] 12.3 µM | [26] 10.9 µM | [27] 5.25 µM | [28] 11.9 µM | [29] 11 µM | [30] 15 µM | [31] 6.4 µM | [32] 10.4 µM | [33] 9.31 µM | [34] 13.9 µM | [35] 11.8 µM | [36] 5.56 µM | [37] 10.6 µM | [38] 10.9 µM | [39] 12.9 µM | [40] 15.6 µM | [41] 16 µM | [42] 3.2 µM | [43] 10.6 µM | [44] 13.3 µM | [45] 7.57 µM | [46] 5.66 µM | [47] 8.15 µM | [48] 6.76 µM | [49] 8.47 µM | [50] 10.6 µM | [51] 10.1 µM | [52] 10.7 µM | [53] 5.58 µM | [54] 13.3 µM | [55] 7.41 µM | [56] 7.06 µM | [57] 17.3 µM | [58] 4.42 µM

C/C(=C/CC[C@]1(CO)CC[C@]2(C)[C@H](CC[C@@H]3[C@@]4(C)CC[C@H](OC5OC(CO)C(O)C(O)C5OC5OC(CO)C(O)C(O)C5O)C(C)(C)[C@@H]4CC[C@]32C)[C@H]1O)CO (stereo not given in full)
inactive: [1] > 100 µM | [2] > 100 µM | [3] > 100 µM | [4] > 100 µM | [5] > 100 µM | [6] > 100 µM | [7] > 100 µM | [8] > 100 µM | [9] > 100 µM | [10] > 100 µM | [12] > 100 µM | [14] > 100 µM | [15] > 100 µM | [16] > 100 µM | [17] > 100 µM | [18] > 100 µM | [19] > 100 µM | [20] > 100 µM | [21] > 100 µM | [59] > 100 µM | [22] > 100 µM | [23] > 100 µM | [24] > 100 µM | [25] > 100 µM | [26] > 100 µM | [27] > 100 µM | [28] > 100 µM | [29] > 100 µM | [30] > 100 µM | [31] > 100 µM | [32] > 100 µM | [33] > 100 µM | [34] > 100 µM | [35] > 100 µM | [36] > 100 µM | [37] > 100 µM | [38] > 100 µM | [39] > 100 µM | [40] > 100 µM | [41] > 100 µM | [42] > 100 µM | [43] > 100 µM | [44] > 100 µM | [46] > 100 µM | [47] > 100 µM | [48] > 100 µM | [49] > 100 µM | [50] > 100 µM | [51] > 100 µM | [52] > 100 µM | [53] > 100 µM | [54] > 100 µM | [55] > 100 µM | [56] > 100 µM | [57] > 100 µM | [58] > 100 µM
> 100 µM: [13]
